Test results: ChEMBL document CHEMBL1133931, “Anti-AIDS agents. Part 47: Synthesis and anti-HIV activity of 3-substituted 3',4'-Di-O-(S)-camphanoyl-(3'R,4'R)-(+)-cis-khellactone derivatives” (Bioorg Med Chem Lett, 2001)

Experiments:
[1] = Therapeutic index (IC50/EC50) of compound was determined in acutely infected H9 cell; type: cell-based; settings: human, acutely infected H9 cells; read-out: TI
[2] = tested on: H9; test: Inhibitory concentration against HIV-1 replication in acutely infected H9 lymphocytes; type: functional, cell-based; settings: Homo sapiens
[3] = tested on: H9; test: Inhibitory concentration required to inhibit uninfected H9 cell growth by 50%; type: functional, cell-based; settings: Homo sapiens

Structure (SMILES)	EC50 [2]	selectivity ratio [1]	IC50 [3]
CC1(C)Oc2ccc3cc(CBr)c(=O)oc3c2[C@@H](OC(=O)C23CCC(C)(C(=O)O2)C3(C)C)[C@H]1OC(=O)C12CCC(C)(C(=O)O1)C2(C)C (stereo partly drawn)	0.0854 µM	40	3.38 µM
CC1(C)Oc2ccc3ccc(=O)oc3c2[C@@H](OC(=O)C23CCC(C)(C(=O)O2)C3(C)C)[C@H]1OC(=O)C12CCC(C)(C(=O)O1)C2(C)C (stereo partly drawn)	–	137000	–
CC(=O)OCc1cc2ccc3c(c2oc1=O)[C@@H](OC(=O)C12CCC(C)(C(=O)O1)C2(C)C)[C@@H](OC(=O)C12CCC(C)(C(=O)O1)C2(C)C)C(C)(C)O3 (stereo partly drawn)	0.00103 µM	3240	3.34 µM
CCN(CC)Cc1cc2ccc3c(c2oc1=O)[C@@H](OC(=O)C12CCC(C)(C(=O)O1)C2(C)C)[C@@H](OC(=O)C12CCC(C)(C(=O)O1)C2(C)C)C(C)(C)O3 (stereo partly drawn)	0.69 µM	62	43 µM
CC1(C)Oc2ccc3cc(CN)c(=O)oc3c2[C@@H](OC(=O)C23CCC(C)(C(=O)O2)C3(C)C)[C@H]1OC(=O)C12CCC(C)(C(=O)O1)C2(C)C (stereo partly drawn)	0.39 µM	–	32.8 µM

Now from value to compound, other results behind:

EC50 [2]	Structure (SMILES)	selectivity ratio [1]	IC50 [3]
0.000188 µM	CC1(C)Oc2ccc3cc(CO)c(=O)oc3c2[C@@H](OC(=O)C23CCC(C)(C(=O)O2)C3(C)C)[C@H]1OC(=O)C12CCC(C)(C(=O)O1)C2(C)C (stereo partly drawn)	188000	35.4 µM
0.000119 µM	CC1(C)Oc2ccc3cc(C(Br)Br)c(=O)oc3c2[C@@H](OC(=O)C23CCC(C)(C(=O)O2)C3(C)C)[C@H]1OC(=O)C12CCC(C)(C(=O)O1)C2(C)C (stereo partly drawn)	26900	3.2 µM
